Ends that are not written are not given here.

Here are results for 1 sequence from patent US20250051391A1, “PEPTIDE INHIBITORS AND METHODS FOR INHIBITING PROTEIN AGGREGATION IN NEURONS AND NEURODEGENERATIVE DISEASES” (THE GOVERNING COUNCIL OF THE UNIVERSITY OF TORONTO, priority 2021, published 2025).

The test system of assay [1] is C. elegans PDE dopaminergic neurons. The assay is described as follows: C. elegans neurite length assay (A30P a-syn). Format: in vivo. The settings on record: A30P human a-syn; RFP-tagged peptide version based on the nematode sequence of CHMP2B. As for the experimental part: C. elegans strains were grown and maintained under standard conditions at 22-23° (4). BZ555 [dat-1p::gfp] was obtained from the C. elegans Genetics Center (CGC; University of Minnesota, St Paul, MN, USA), TWH1 ([dat-1p::a-syn(A30P), ges-1p::DsRed]; [dat-1p::gfp]) was obtained by crossing BZ555 with A30P a-syn transgenic animals (kindly provided by Dr. Takeshi Iwatsubo, University of Tokyo) (5).
The peptide construct (pPD97.78_osm-6p_TagRFP_wpeptide) was obtained by subcloning the following fragments into NheI and SpeI sites of pPD97.78 (A. Fire): NheI-AgeI […] fragment (2.4 kb) obtained by PCR using primer set 5′-[…]-3′ (SEQ ID NO: 44) and 5′-[…]-3′ (SEQ ID NO: 45) and N2 genomic DNA as a template, AgeI-EcoRI TagRFP fragment obtained by PCR using primer set 5′-gttgaccggt[…]-3′ (SEQ ID NO: 46) and 5′-ggcagaattcga[…]-3′ (SEQ ID NO: 47), EcoRI-SmaI peptide ([…] (SEQ ID NO: 48)) fragment digested from CMV_[…]_worm, SmaI-SpeI unc-54 3′-UTR fragment digested from pPD95.75 (Fire vector). […]
Each plasmid (40 ng/μl) was injected with a co-injection marker, sur-5p::mCherry into TWH1. The animals carrying the extrachromosomal arrays were transferred to new plates, and their progenies were analyzed at the adult stage under a widefield microscope (Zeiss AxioObserver). […]

The test system of assay [2] is rat substantia nigra dopaminergic neurons. Briefly: AAV V1S/SV2 a-syn oligomer rat model. Type of assay: in vivo. On the procedure:
Adult female Sprague-Dawley rats (250-280 g; Envigo) were pair-housed in cages with wood bedding and had access to food and water ad libitum. The animal colony was maintained in a regular 12-h light/dark cycle. All procedures were approved by the University Health Network Animal Care Committee in accordance with guidelines and regulations set by the Canadian Council on Animal Care.
Animals were secured in a stereotactic frame under isoflurane/oxygen anaesthesia and ketoprofen (5 mg/kg) analgesia. The surgical site was shaved and sterilized with iodine/betadine prior to making a 2 cm incision along the midline. The scalp was exposed and a unilateral injection targeting the SN was performed at coordinates AP−5.2 mm, ML−2 mm and DV−7.4 mm with respect to the bregma as a point of reference. For each animal, a total volume of 2 μl of virus was injected at a rate of 0.5 μl/min using a microinjection pump and 10 μl Hamilton syringe with a 26-gauge needle. For A53T groups, 1 μl (low dose) or 1.34 μl (high dose) of AAV1/2-A53T a-syn (5.1×10^12 genomic particles/ml), 0.14 μl of AAV1/2-Pdpep1.3-GFP or scramble1.3-GFP (5.1×10^12 genomic particles/ml) and 0.86 μl or 0.52 μl of sterile PBS was injected; for EV groups, 1 μl (low dose) or 1.34 μl (high dose) of AAV1/2-EV (5.1×10^12 genomic particles/ml) replaced AAV1/2-A53T. For V1S+SV2 groups, 0.58 μl of AAV1/2-V1S (1.1×10^12 genomic particles/ml), 0.58 μl of AAV1/2-SV2 (1.1×10^12 genomic particles/ml), 0.14 μl of AAV1/2-Pdpep1.3-RFP or scramble1.3-RFP (5.1×10^12 genomic particles/ml) and 0.7 μl of sterile PBS was injected; for the YFP groups, 1.16 μl of AAV1/2-YFP (1.1×10^12 genomic particles/ml), 0.14 μl of AAV1/2-Pdpep1.3-RFP or scramble1.3-RFP (5.1×10^12 genomic particles/ml) and 0.7 μl of sterile PBS was injected. At the end of virus injection, the needle remained in place for 5 minutes before gradual removal.
Animals were uthanized by transcardial perfusion with heparinised saline under isoflurane/oxygen anaesthesia. Brains were then removed and the ventral part, including the ventral striatum, was snap frozen in liquid dry ice-cooled isopentane. […]
Immunofluorescence staining for a-syn, tyrosine hydroxylase and LAMP1 was performed by washing free-floating sections with PBS-T (0.2% Triton X-100) three times for 10 min each at room temperature. […] Sections were then mounted onto glass slides and allowed to dry and then fluorescence mounting medium (DAKO) was applied followed by cover slips.
Confocal images of immunofluorescent staining were acquired with a Zeiss LSM880 confocal microscope equipped with 405, 488, 555, and 639 nm laser lines. All images were taken within the linear range at constant gain and pinhole settings at optimal resolution settings determined by the software. […]

In the case of DEEIERQLKALG [PDpep1.3], the “neurite shortening of PDE dopaminergic neurons” value in assay [1] is “partially rescued”. Moreover, in assay [2] (6 weeks post-injection), the “surviving dopaminergic neurons in the SN and terminals in the striatum (TH)” value is on record as “increase in surviving dopaminergic neurons”; the “total a-syn positive area in the SN” value was “decrease”. Further, in assay [2] (6 weeks post-injection, vs Scramble1.3), the “a-syn oligomer levels measured by YFP positive area in SN and striatum” value is reported as “significant reduction”. Moreover, in assay [2] (rats, V1S/SV2, 6 weeks post-injection, AAV-expressed RFP peptide), the “YFP mean fluorescence intensity in SN cells positive for TH and RFP” value amounted to 0.063±0.0167 RFU.
